Test results reported in ChEMBL document CHEMBL5260799, “Pterocarpan scaffold: A natural lead molecule with diverse pharmacological properties” (Eur J Med Chem, 2017).
In brackets after ≈: the same amount, converted by molar mass.

Legend:
[1] = Inhibition of melanin in human melanocyte; format: functional, cell-based
Plasmodium falciparum [2] = experiment: Antiplasmodial activity against Plasmodium falciparum D6 assessed as reduction in plasmodial growth after 48 hrs by fluorescence based analysis; format: functional, organism-based; conditions: D6, 48 h
Plasmodium falciparum [3] = experiment: Antiplasmodial activity against Plasmodium falciparum W2 assessed as reduction in plasmodial growth after 48 hrs by fluorescence based analysis; format: functional, organism-based; conditions: W2, 48 h
KB [4] = experiment: Cytotoxicity against human KB cells assessed as reduction in cell viability by colorimetric assay; format: functional, cell-based
Streptococcus agalactiae = experiment: Antibacterial activity against Streptococcus agalactiae ATCC 12386 assessed as reduction in bacterial growth by microbroth dilution method; format: functional
[5] = tested on: Mycobacterium tuberculosis; experiment: Antimycobacterial activity against Mycobacterium tuberculosis H37Rv assessed as inhibition of bacterial growth by Microplate alamar blue assay; format: functional, organism-based
Breast carcinoma cell = experiment: Cytotoxicity against human Breast carcinoma cell assessed as reduction in cell viability by colorimetric assay; format: functional, cell-based
Plasmodium falciparum [6] = experiment: Antiplasmodial activity against Plasmodium falciparum K1 assessed as reduction in parasite growth by fluorescence based assay; format: functional, organism-based
K562 = experiment: Cytotoxicity activity against human K562 cells assessed as reduction in cell viability […] measured after 72 hrs by MTT assay; format: functional, cell-based; conditions: K562, 72 h
[7] = Cytotoxicity activity against human Lucena 1 cells assessed as reduction in cell viability […] measured after 72 hrs by MTT assay; format: functional, cell-based; conditions: Lucena 1, 72 h
RAW264.7 = experiment: Antiinflammatory activity in mouse RAW264.7 cells assessed as inhibition of LPS-induced NO production at 50 uM measured after 24 hrs by Griess method; format: functional, cell-based; conditions: RAW264.7, 24 h
A2780 = experiment: Antiproliferative activity against human A2780 cells assessed as reduction in cell viability incubated for 96 hrs by MTT assay; format: functional, cell-based; conditions: A2780, 96 h
Mus musculus = species on record: Mus musculus; experiment: Reduction in hepatic steatosis in HFD-induced C57BL/6J mouse model assessed as reduction in serum LDL level […]; format: functional, organism-based
[8] = Antioxidant activity assessed as DPPH radical scavenging activity incubated for 20 mins by spectrometry method; format: functional
CCRF-CEM = experiment: Cytotoxicity against human CCRF-CEM cells assessed as reduction in cell viability incubated for 72 hrs by MTT assay; format: functional, cell-based
MCF7 = experiment: Antiproliferative activity against human MCF7 cells assessed as inhibition of cell proliferation incubated for 72 hrs by MTT assay; format: functional, cell-based; conditions: MCF7, 72 h
KB [9] = experiment: Antiproliferative activity against human KB cells assessed as reduction in cell viability after 72 hrs by SRB assay; format: functional
Staphylococcus aureus [10] = experiment: Antibacterial activity against methicillin-resistant Staphylococcus aureus assessed as bacterial growth inhibition; format: functional, organism-based
Staphylococcus aureus [11] = experiment: Antibacterial activity against methicillin-resitant Staphylococcus aureus N1 assessed as reduction in bacterial growth by microbroth dilution method; format: functional
HL-60 = experiment: Antiproliferative activity against human HL-60 cells assessed as reduction in cell viability at 12.5 ug/ml by tryphan blue staining assay; format: functional; conditions: dose 12.5 µg/ml
Neuraminidase = Neuraminidase (Influenza A virus, UniProt B4URF0); experiment: Inhibition of Influenza A virus H5N1 neuraminidase
DLD-1 = experiment: Cytotoxicity against human DLD-1 cells assessed as reduction in cell proliferation incubated for 24 hrs by MTT assay; format: functional, cell-based; conditions: DLD-1, 24 h
HeLa = experiment: Cytotoxicity against human HeLa cells assessed as reduction in cell proliferation incubated for 24 hrs by MTT assay; format: functional, cell-based
Staphylococcus aureus [12] = experiment: Antibacterial activity against Staphylococcus aureus ATCC 25923 assessed as bacterial growth inhibition by broth dilution method; format: functional, organism-based
Staphylococcus aureus [13] = experiment: Antibacterial activity against methicillin-resistant Staphylococcus aureus ATCC 25923 assessed as bacterial growth inhibition by broth dilution method; format: functional, organism-based
BMDC = experiment: Anti-inflammatory activity against LPS-induced C57BL/6 mouse BMDC cells assessed as inhibition of IL-12 production at 25 uM by ELISA method; format: functional; design: scale not given: the % may be the effect or the level left

Sequence of Neuraminidase (B4URF0 whole entry): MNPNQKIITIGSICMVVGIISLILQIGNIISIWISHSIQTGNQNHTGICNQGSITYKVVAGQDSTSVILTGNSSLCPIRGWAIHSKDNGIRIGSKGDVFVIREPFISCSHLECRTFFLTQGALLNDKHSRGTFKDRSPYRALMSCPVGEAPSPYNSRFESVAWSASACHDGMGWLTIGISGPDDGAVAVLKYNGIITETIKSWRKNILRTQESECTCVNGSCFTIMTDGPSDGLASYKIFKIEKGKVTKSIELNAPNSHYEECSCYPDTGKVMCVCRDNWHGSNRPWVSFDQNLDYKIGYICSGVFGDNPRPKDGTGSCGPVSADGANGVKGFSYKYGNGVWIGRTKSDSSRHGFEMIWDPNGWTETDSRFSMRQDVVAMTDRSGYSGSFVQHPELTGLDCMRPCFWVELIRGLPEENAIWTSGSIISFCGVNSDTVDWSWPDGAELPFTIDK

Question: Which IC50 [1] does the source give for `COc1ccc2c(c1)OCc1c-2oc2c3c(c(O)cc12)OC(C)(C)C=C3` [LESPEFLORIN H2] here?
Answer: Its IC50 is 1.48 µM.

Question: Which IC50 (Plasmodium falciparum [2]) does the source give for `CC1(C)C=Cc2cc3c(cc2O1)OCC1c2ccc(O)cc2OC31` (stereo unspecified) here?
Answer: The IC50 was 19.4 µM.

Question: And the IC50 (Plasmodium falciparum [3])?
Answer: The IC50 was 17 µM.

Question: For `CC(C)=CCc1cc2c(cc1O)OC[C@H]1c3ccc(O)c(CC=C(C)C)c3O[C@@H]21` [ERYBRAEDIN C], which IC50 (KB [4]) is on record?
Answer: The IC50 was 5.1 µg/mL (≈ 13 µM).

Question: What about the MIC (Streptococcus agalactiae) of the same compound?
Answer: Its MIC is 0.78 µg/mL (≈ 1.99 µM).

Question: And the IC50 [5]?
Answer: The IC50 was 50 µg/mL (≈ 127 µM).

Question: And the IC50 (Breast carcinoma cell)?
Answer: Its IC50 is 2.9 µg/mL (≈ 7.39 µM).

Question: What about the IC50 (Plasmodium falciparum [6]) of the same compound?
Answer: The IC50 was 5.5 µg/mL (≈ 14 µM).

Question: Which IC50 (K562) does the source give for `O=C1C2=C(C(=O)c3ccccc31)[C@H]1Oc3cc(OCc4ccccc4)c(OCc4ccccc4)cc3[C@H]1CO2` here?
Answer: Its IC50 is 3.46 µM.

Question: And the IC50 [7]?
Answer: Its IC50 is 3.64 µM.

Question: For `COc1ccc2c(c1OC)O[C@H]1c3ccc(O[C@H]4O[C@H](COC(C)=O)[C@@H](O)[C@H](O)[C@H]4O)cc3OC[C@@H]21`, which EC50 (RAW264.7) is on record?
Answer: Its EC50 is 28.7 µM.

Question: For `C=C(C)[C@H]1Cc2cc3c(cc2O1)OC[C@@H]1c2ccc(OC)c(O)c2O[C@H]31`, which IC50 (A2780) is on record?
Answer: The IC50 was 23.2 µM.

Question: With `COc1cc(Br)c2c(c1CC=C(C)C)O[C@H]1c3ccc(O)cc3OC[C@@H]21` as the compound, how does the IC50 (Plasmodium falciparum [2]) read?
Answer: Its IC50 is 12.9 µg/mL.

Question: With `C=C(C)[C@@H]1Cc2cc3c(cc2O1)OC[C@@]1(O)c2ccc(O)cc2O[C@@H]31` [GLYCEOLLIN III] as the compound, how does the IC50 (Mus musculus) read?
Answer: Its IC50 is 45 µM.

Question: For `COc1c(O)cc2c(c1OC)O[C@H]1c3ccc(O)cc3OC[C@@H]21`, which IC50 [8] is on record?
Answer: Its IC50 is 3.8 µM.

Question: For `COc1ccc2c(c1CC=C(C)C)O[C@H]1c3ccc(O)cc3OC[C@@]21O` [ERYTHRABYSSIN I], which IC50 (CCRF-CEM) is on record?
Answer: Its IC50 is 3.36 µM.

Question: With `O=C1c2ccccc2C(=O)C2C1OCC1c3cc4c(cc3OC12)OCO4` (stereo unspecified) as the compound, how does the IC50 (MCF7) read?
Answer: Its IC50 is 29 µM.

Question: With `COc1cc2c(cc1O)[C@H]1COC3=C(C(=O)c4ccccc4C3=O)[C@H]1O2` as the compound, how does the IC50 [7] read?
Answer: The IC50 was 2.57 µM.

Question: For `CC(C)=CC[C@]12COc3c(cc(O)c4c3C=CC(C)(C)O4)[C@H]1Oc1cc3c(cc12)OCO3`, which Activity (KB [9]) is on record?
Answer: The Activity was 56%.

Question: Which IC50 (Staphylococcus aureus [10]) does the source give for `CC(C)=CCc1cc2c(cc1O)OCc1c-2oc2c(CC=C(C)C)c(O)ccc12` [ERYCRYSTAGALLIN] here?
Answer: Its IC50 is 6.25 µg/mL (≈ 16 µM).

Question: What about the MIC (Staphylococcus aureus [11]) of the same compound?
Answer: Its MIC is 0.78 µg/mL (≈ 2 µM).

Question: Which Activity (HL-60) does the source give for `COc1ccc2c(c1)O[C@@H]1c3ccc(O)cc3OC[C@H]21` here?
Answer: Its Activity is 57.4%.

Question: Which IC50 (Plasmodium falciparum [2]) does the source give for `COc1ccc2c(c1CC=C(C)C)O[C@H]1c3ccc(OC(C)=O)cc3OC[C@@H]21` here?
Answer: The IC50 was 34.8 µg/mL.

Question: Which IC50 (Neuraminidase) does the source give for `O=c1oc2cc(O)ccc2c2oc3cc(O)ccc3c12` [COUMESTROL] here?
Answer: Its IC50 is 37.8 µM.

Question: What about the IC50 (Mus musculus) of the same compound?
Answer: The IC50 was 0.9 µM.

Question: For `COc1cc2c(cc1OCc1ccccc1)C1COC3C(=O)c4ccccc4C(=O)C3C1O2` (stereo unspecified), which IC50 (MCF7) is on record?
Answer: The IC50 was > 100 µM.

Question: What does the source list for `COc1cc2c(cc1O)[C@@H]1Oc3c(cc(OC)c(OC)c3O)[C@@H]1CO2` [BRANDISIANIN F]?
Answer: IC50 (DLD-1): > 25 µM; IC50 (HeLa): > 25 µM

Question: With `COc1ccc2c(c1CC=C(C)C)O[C@H]1c3ccc(O)cc3OC[C@@]21OC` [ERYTHRIBYSSIN A] as the compound, how does the IC50 (Staphylococcus aureus [12]) read?
Answer: The IC50 was 64 µg/mL (≈ 174 µM).

Question: And the IC50 (Staphylococcus aureus [13])?
Answer: Its IC50 is 32 µg/mL (≈ 86.9 µM).

Question: What does the source list for `O=C1C2=C(C(=O)c3ccccc31)[C@H]1Oc3cc4c(cc3[C@H]1CO2)OCO4`?
Answer: IC50 (K562): 4.63 µM; IC50 [7]: 5.47 µM

Question: For `CC(C)=CCc1cc2c(cc1O)OC1c3ccc(O)cc3OCC21` (stereo unspecified), which IC50 (CCRF-CEM) is on record?
Answer: The IC50 was 3.73 µM.

Question: Which IC50 [1] does the source give for `COc1ccc2c(c1)OC[C@H]1c3cc(O)c(OC)c(CC=C(C)C)c3O[C@@H]21` [LESPEFLORIN G8] here?
Answer: The IC50 was 1.63 µM.

Question: Which IC50 [1] does the source give for `CC(C)=CCc1cc2c(cc1O)OC[C@H]1c3c4c(c(O)c(CC=C(C)C)c3O[C@@H]21)OC(C)(C)CC4` here?
Answer: Its IC50 is 0.4 µM.

Question: Which Activity (BMDC) does the source give for `COc1ccc2c(c1OC)OC1c3ccc(O)cc3OCC21` (stereo unspecified) here?
Answer: Its Activity is 45%.
